Peptide text beside a SMILES is read from it.
System: B. megaterium SR7
Assay: Biolog GenIII sole carbon source growth
Type: cell-based, Bacillus megaterium
Settings: for Growth in carbon source Biolog plate, +Metals: trace metals-amended plate; for Growth in carbon source Biolog plate, +Metals / Growth in carbon source Biolog plate, I / Growth in carbon source Biolog plate, II: Table 11; for Growth in carbon source Biolog plate, I: unamended plate trial I; for Growth in carbon source Biolog plate, II: unamended plate trial II
Procedure: Plates were incubated at 37° C. on a plate shaker at 200 rpm and assayed for growth using NADH-dependent colorimetric changes measured by OD490 on a microplate reader (BioTek Synergy 2; BioTek; Winooski, Vt.).

Compound | Growth in carbon source Biolog plate, +Metals | Growth in carbon source Biolog plate, I | Growth in carbon source Biolog plate, II | Growth on Biolog sole carbon source, SR7 (no metals added, Table 10)
CCC(=O)C(=O)O [α-Keto-Butyric Acid] | − | − | − | 
NC(=O)[C@@H](O)[C@@H](O)[C@H](O)[C@@H](O)C=O [Glucuronamide] | − | − | − | 
OC[C@H]1O[C@@H](O[C@H]2[C@H](O)[C@@H](O)[C@H](O)O[C@@H]2CO)[C@H](O)[C@@H](O)[C@@H]1O [D-Cellobiose] | + | + | + | 
OC[C@H]1O[C@H](OCC2O[C@@H](O)[C@H](O)[C@@H](O)[C@@H]2O)[C@H](O)[C@@H](O)[C@H]1O (stereo partly drawn) [D-Melibiose] | + | + | + | 
O=C(O)C[C@@H](O)C(=O)O [D-Malic Acid] | − | − | − | 
CCC(O)C(=O)O (stereo not drawn) [α-Hydroxy-Butyric Acid] | − | − | − | 
O=C[C@H](O)[C@@H](O)[C@H](O)[C@H](O)C(=O)O [D-Glucuronic Acid] | − | + | + | 
O=C1CC[C@@H](C(=O)O)N1 [L-Pyroglutamic Acid] | +++ | + | + | 
O=P(O)(O)OC[C@H]1OC(O)[C@H](O)[C@@H](O)[C@@H]1O (stereo partly drawn) [D-Glucose-6-PO4] | − | − | − | 
O=C(O)Cc1ccc(O)cc1 [p-Hydroxy-Phenylacetic Acid] | − | − | − | 
NCCCC(=O)O [Υ-Amino-Butryric Acid] | +++ | − | + | 
O[C@H]1[C@H](O)[C@@H](O)[C@H](O)[C@@H](O)[C@H]1O [myo-Inositol] | +++ | − | + | 
D-Salicin | + | + | + | 
OC[C@H]1O[C@H](O[C@H]2O[C@H](CO)[C@@H](O)[C@H](O)[C@H]2O)[C@H](O)[C@@H](O)[C@@H]1O [D-Trehalose] | + | − | + | 
O=C[C@@H](O)[C@@H](O)[C@H](O)[C@H](O)CO [D-Mannose] | − | − | − | 
O=C1O[C@H]([C@@H](O)CO)[C@@H](O)[C@@H]1O [L-Galactonic Acid Lactone] | − | − | + | 
OC[C@H]1O[C@H](OC[C@H]2O[C@H](OC[C@H]3O[C@H](O[C@]4(CO)O[C@H](CO)[C@@H](O)[C@@H]4O)[C@H](O)[C@@H](O)[C@@H]3O)[C@H](O)[C@@H](O)[C@H]2O)[C@H](O)[C@@H](O)[C@H]1O [Stachyose] | + | + | + | 
O=C(O)[C@]1(O)C[C@@H](O)[C@@H](O)[C@H](O)C1 [Quinic Acid] | − | − | + | 
CC(=O)CC(=O)O [Acetoacetic Acid] | − | − | + | 
O=P(O)(O)OC[C@H]1OC(O)(CO)[C@@H](O)[C@@H]1O (stereo partly drawn) [D-Fructose-6-PO4] | − | + | − | 
OC[C@@H](O)C(O)[C@H](O)CO [D-Arabitol] | + | + | + | 
D-Turanose | +++ | + | + | 
CC(=O)N[C@H]1C(O)O[C@H](CO)[C@H](O)[C@@H]1O (stereo partly drawn) [N-Acetyl-D-Galactosamine] | − | + | − | 
OC[C@H]1O[C@H](OC[C@H]2O[C@H](O[C@]3(CO)O[C@H](CO)[C@@H](O)[C@@H]3O)[C@H](O)[C@@H](O)[C@@H]2O)[C@H](O)[C@@H](O)[C@H]1O [D-Raffinose] | +++ | − | + | 
CO[C@@H]1O[C@H](CO)[C@@H](O)[C@H](O)[C@H]1O [β-Methyl-D-Glucoside] | + | − | + | 

Compound | Growth in carbon source Biolog plate, +Metals | Growth in carbon source Biolog plate, I | Growth in carbon source Biolog plate, II | Growth on Biolog sole carbon source, SR7 (no metals added, Table 10)
COC(=O)C(C)=O [Methyl Pyruvate] | + | + | + | 
O=CO [Formic Acid] | − | + | − | 
O=C[C@H](O)[C@@H](O)[C@@H](O)[C@H](O)C(=O)O [D-Galacturonic Acid] | − | − | + | 
CCC(=O)O [Propionic Acid] | − | − | + | 
O=C[C@H](O)[C@@H](O)[C@@H](O)[C@H](O)CO [D-Galactose] | + | + | + | 
O=C(O)[C@@H](O)[C@H](O)[C@H](O)[C@@H](O)C(=O)O [Mucic Acid] | − | − | + | 
OC[C@H]1O[C@H](O[C@H]2[C@H](O)[C@@H](O)[C@H](O)O[C@@H]2CO)[C@H](O)[C@@H](O)[C@@H]1O [D-Maltose] | + | − | + | −
N=C(N)NCCC[C@H](N)C(=O)O [L-Arginine] | +++ | + | + | 
OC[C@H]1O[C@@H](n2cnc3c(O)ncnc32)[C@H](O)[C@@H]1O [Inosine] | + | − | + | 
Gentiobiose | + | + | + | 
O=C(CO)[C@@H](O)[C@H](O)[C@H](O)CO [D-Fructose] | + | + | + | 
N[C@@H](CO)C(=O)O [L-Serine] | − | + | + | 
COC(=O)[C@@H](C)O [D-Lactic Acid Methyl Ester] | + | + | + | 
CC(=O)N[C@H]1[C@@H](O)[C@H](O)[C@@H](CO)O[C@H]1O [N-Acetyl-β-D-Mannosamine] | − | − | − | 
CC(=O)N[C@H]1[C@H]([C@H](O)[C@H](O)CO)OC(O)(C(=O)O)C[C@@H]1O (stereo partly drawn) [N-Acetyl Neuraminic Acid] | − | − | − | 
O=C(O)CC(O)(CC(=O)O)C(=O)O [Citric Acid] | +++ | +++ |  | 
OC[C@@H](O)[C@@H](O)[C@H](O)[C@@H](O)CO [D-Sorbitol] | + | + | − | 
NCC(=O)N1CCC[C@H]1C(=O)O [Glycyl-L-Proline] (H-Gly-Pro-OH) | − | − | − | 
C[C@H](O)[C@@H](O)[C@@H](O)[C@H](O)C=O [L-Fucose] | − | − | − | 
OC[C@H]1O[C@@H](O[C@H]2[C@H](O)[C@@H](O)[C@@H](O)O[C@@H]2CO)[C@H](O)[C@@H](O)[C@H]1O [α-D-Lactose] | + | + | + | 
Tween 40 | − | − | + | 
N[C@H](CC(=O)O)C(=O)O [D-Aspartic Acid] | − | − | − | 
OCC(O)CO [Glycerol] | + | + | + | 
C[C@@H](O)[C@H](O)[C@H](O)[C@@H](O)C=O [D-Fucose] | − | − | − | 
